Assay results as given in ChEMBL document CHEMBL4371076 (J Med Chem, 2019).
Activity calls are given as the source filed them. The rule behind the calls is not given here.

Key:
[1] = Toxicity in CD1 mouse model of formalin-induced nociception assessed as prostration or sedation at 30 mg/kg, po; format: organism-based; settings: in vivo
[2] = Fraction unbound in rat trigeminal ganglia neuron tissue; format: ADME, tissue-based, Trigeminal ganglion
[3] = Plasma concentration in CD1 mouse model of formalin-induced nociception at 30 mg/kg, ip; format: ADME, organism-based; settings: read-out: Cp, in vivo
[4] = tested on: Mus musculus; assay: Analgesic activity in CD1 mouse model of formalin-induced nociception assessed as reduction in formalin-evoked paw flinching/licking response during first phase at 3 to 10 mg/kg, ip pretreated for 30 mins followed by formalin treatment and measured during first 5 mins post formalin injection; format: functional, organism-based
[5] = tested on: Mus musculus; assay: Effect on thermal response latency in contralateral paw in CD1 mouse model of CFA-induced thermal hyperalgesia at 30 mg/kg, ip administered 72 hrs post CFA challenge and measured at 60 mins post dose by Hargreave's test; format: organism-based; settings: in vivo, 1 h
[6] = Unbound plasma concentration in CD1 mouse model of formalin-induced nociception at 30 mg/kg, ip; format: ADME, organism-based; settings: in vivo
[7] = Unbound plasma concentration in CD1 mouse model of chronic constriction injury-induced cold allodynia at 30 mg/kg, ip dosed at 5 weeks post surgery and measured 60 mins post dose; format: ADME, organism-based; settings: in vivo, 1 h
[8] = Plasma concentration in CD1 mouse model of chronic constriction injury-induced cold allodynia at 3 mg/kg, ip dosed at 5 weeks post surgery and measured 60 mins post dose; format: ADME, organism-based

Row | fraction unbound [2] | concentration [3] | Cp(f) [6] | SMILES | Activity [1] | Activity [4] | Activity [5] | Cp(f) [7] | concentration at 1 h [8]
1 | 0.045 |  |  | CC(C)COc1ccc(-c2cn(C)c3cc(C(=O)NS(C)(=O)=O)c(F)cc23)cn1 | Non-Toxic |  |  |  | 
2 |  | 59 µM | 0.118 µM | CC(C)COc1ncc(-c2cn(C)c3cc(C(=O)NS(C)(=O)=O)ccc23)cc1Cl |  | inactive | Non-Toxic | 0.136 µM | 3.3 µM
